Results taken from ChEMBL document CHEMBL4138198, “Synthesis of new 1-benzyl tetrahydropyridinylidene ammonium salts and their antimicrobial and anticellular activities” (Eur J Med Chem, 2018).
In brackets after ≈: the same amount, converted by molar mass.

Columns and labels:
[1] = test system: Plasmodium falciparum; assay: Antimalarial activity against erythrocytic stage of Plasmodium falciparum NF54 assessed as inhibition of [3H]-hypoxanthine incorporation after 48 hrs by liquid scintillation counting analysis; assay type: functional, organism-based
[2] = Selectivity index, ratio of IC50 for rat L6 cells to IC50 for Trypanosoma brucei rhodesiense STIB900 bloodstream forms; assay type: toxicity; details: read-out: Ratio IC50
[3] = test system: Trypanosoma brucei rhodesiense; assay: Antitrypanosomal activity against Trypanosoma brucei rhodesiense STIB900 bloodstream forms after 70 hrs by Alamar blue staining-based fluorometric analysis; assay type: functional, organism-based; details: STIB900, 70 h
[4] = Selectivity index, ratio of IC50 for rat L6 cells to IC50 for erythrocytic stage of Plasmodium falciparum NF54; assay type: toxicity; details: read-out: Ratio IC50
[5] = test system: L6; assay: Cytotoxicity against rat L6 cells after 70 hrs by Alamar blue staining-based fluorometric analysis; assay type: cell-based; details: L6, 70 h
[6] = test system: Plasmodium berghei; assay: Antiplasmodial activity against GFP expressing Plasmodium berghei ANKA infected in NMRI mouse assessed as reduction in parasitemia at 10 mg/kg, ip administered 4 hrs, 24 hrs, 48 hrs, 72 hrs post infection for 4 days and measured 72 hrs post infection by FACS analysis relative to control; assay type: functional; design: scale not given: the % may be the effect or the level left
[7] = test system: Plasmodium berghei; assay: Antiplasmodial activity against GFP expressing Plasmodium berghei ANKA infected in NMRI mouse assessed as mouse mean survival days at 10 mg/kg, ip administered 4 hrs, 24 hrs, 48 hrs, 72 hrs post infection for 4 days and measured 72 hrs post infection by FACS analysis (reference value: 4 days); assay type: functional
[8] = Growth inhibition of human MRC5 cells at 117 uM after 72 hrs by XTT assay relative to control; assay type: cell-based; details: read-out: GI
[9] = Growth inhibition of human MRC5 cells assessed as metabolic active cells level at 123.3 uM after 72 hrs by XTT assay relative to control; assay type: ADME, cell-based; details: read-out: Activity
[10] = test system: Mycolicibacterium smegmatis; assay: Antimycobacterial activity against Mycobacterium smegmatis ATCC 14468 after 72 hrs by MTT dye-based microbroth dilution assay; assay type: functional; details: ATCC 14468, 72 h
[11] = test system: Candida albicans; assay: Antimicrobial activity against Candida albicans ATCC 10231 assessed as zone of inhibition at 50 ug per disc after 48 hrs by disc diffusion assay; assay type: functional; details: ATCC 10231, 48 h, read-out: DIZ
[12] = test system: Staphylococcus epidermidis; assay: Antimicrobial activity against Staphylococcus epidermidis ATCC 12228 assessed as zone of inhibition at 50 ug per disc after 24 hrs by disc diffusion assay; assay type: functional; details: ATCC 12228, 24 h, read-out: DIZ
[13] = test system: Pseudomonas aeruginosa; assay: Antimicrobial activity against Pseudomonas aeruginosa ATCC 27853 assessed as zone of inhibition at 50 ug per disc after 24 hrs by disc diffusion assay; assay type: functional; details: ATCC 27853, 24 h, read-out: DIZ
[14] = test system: Candida tropicalis; assay: Antimicrobial activity against Candida tropicalis ATCC 13803 assessed as zone of inhibition at 50 ug per disc after 48 hrs by disc diffusion assay; assay type: functional; details: ATCC 13803, 48 h, read-out: DIZ
[15] = test system: Staphylococcus aureus; assay: Antimicrobial activity against Staphylococcus aureus subsp. aureus ATCC 25923 assessed as zone of inhibition at 50 ug per disc after 24 hrs by disc diffusion assay; assay type: functional; details: ATCC 25923, 24 h, read-out: DIZ
[16] = test system: MRC5; assay: Cytotoxicity against human MRC5 cells after 72 hrs by XTT assay; assay type: cell-based; details: MRC5, 72 h
[17] = Growth inhibition of human MRC5 cells assessed as metabolic active cells level at 147.7 uM after 72 hrs by XTT assay relative to control; assay type: ADME, cell-based; details: read-out: Activity
[18] = test system: Candida parapsilosis; assay: Antimicrobial activity against Candida parapsilosis ATCC 90018 assessed as zone of inhibition at 50 ug per disc after 48 hrs by disc diffusion assay; assay type: functional; details: Lodderomyces parapsilosis, ATCC 90018, 48 h; read-out: DIZ
[19] = test system: Bacillus subtilis; assay: Antimicrobial activity against Bacillus subtilis subsp. subtilis ATCC 6051 assessed as zone of inhibition at 50 ug per disc after 24 hrs by disc diffusion assay; assay type: functional; details: subsp. subtilis ATCC 6051, 24 h, read-out: DIZ
[20] = test system: Klebsiella oxytoca; assay: Antimicrobial activity against Klebsiella oxytoca ATCC 8724 assessed as zone of inhibition at 50 ug per disc after 24 hrs by disc diffusion assay; assay type: functional; details: ATCC 8724, 24 h, read-out: DIZ
[21] = test system: Escherichia coli; assay: Antimicrobial activity against Escherichia coli ATCC 25922 assessed as zone of inhibition at 50 ug per disc after 24 hrs by disc diffusion assay; assay type: functional; details: ATCC 25922, 24 h, read-out: DIZ
[22] = Growth inhibition of human MRC5 cells at 134 uM after 72 hrs by XTT assay relative to control; assay type: cell-based; details: read-out: GI

| SMILES | IC50 [1] [µM] | selectivity ratio [2] | IC50 [3] [µM] | selectivity ratio [4] | IC50 ([5]; read-out: IC50) [µM] | also measured |
| --- | --- | --- | --- | --- | --- | --- |
| CC(C)c1ccc(CN2C=CC(=[N+]3CCCC3)CC2(C)C)cc1 | 0.015 | 0.054 | 3.24 | 11.7 | 0.176 | – |
| CC1(C)CC(=[N+]2CCCC2)C=CN1Cc1cccc2ccccc12 | 0.063 | 0.69 | 0.89 | 9.68 | 0.61 | – |
| CC1(C)CC(=[N+]2CCCC2)C=CN1Cc1ccc(Br)cc1.[Br-] | 0.026 | 0.8 | 14.5 | 445 | 11.6 | Activity [6]: 48.1%; MSD [7]: 4 days; inhibition at 72 h, 117 µM [8]: 27 to 56% |
| Cc1ccc(CN2C=CC(=[N+]3CCCC3)CC2(C)C)cc1 | 0.1 | 22.4 | 4.24 | 949 | 94.9 | – |
| COc1cc(CN2C=CC(=[N+]3CCCC3)CC2(C)C)cc(OC)c1OC | 1.1 | 11.8 | 16.2 | 174 | 192 | – |
| CC1(C)CC(=[N+]2CCCC2)C=CN1Cc1ccccc1Cl | 0.12 | 0.93 | 10.5 | 81.1 | 9.73 | – |
| CC1(C)CC(=[N+]2CCCC2)C=CN1Cc1ccccn1 | 2.18 | > 3.26 | 100 | > 150 | > 327 | – |
| CC(C)(C)c1ccc(CN2C=CC(=[N+]3CCCC3)CC2(C)C)cc1 | 0.04 | 0.025 | 0.67 | 0.43 | 0.017 | viability at 72 h, 123.3 µM [9]: 0 to 10% |
| CC1(C)CC(=[N+]2CCCC2)C=CN1Cc1ccccc1C#N | 1.09 | > 3.77 | 70.9 | > 245 | > 267 | – |
| CC1(C)CC(=[N+]2CCCC2)C=CN1Cc1ccc(Cl)cc1Cl | 0.043 | 0.23 | 12.8 | 69.5 | 2.99 | – |
| CC1(C)CC(=[N+]2CCCC2)C=CN1c1ccccc1 | 0.36 | – | – | – | – | – |
| CC1(C)CC(=[N+]2CCCC2)C=CN1Cc1ccccc1 | 0.13 | 0.2 | 61.6 | 94.8 | 12.3 | – |
| CC1(C)CC(=[N+]2CCCC2)C=CN1Cc1ccc2c(c1)OCO2 | 0.046 | 1.11 | 18.7 | 451 | 20.8 | – |
| CC1(C)CC(=[N+]2CCCC2)C=CN1Cc1ccc(F)cc1.[Br-] | 0.11 | > 6.94 | 39.2 | > 2480 | > 272 | Activity [6]: 31.6%; MSD [7]: 4 days |
| CC1(C)CC(=[N+]2CCCC2)C=CN1Cc1ccccc1C(F)(F)F | 0.18 | 0.71 | 9.75 | 38.6 | 6.95 | – |
| COc1ccc(CN2C=CC(=[N+]3CCCC3)CC2(C)C)cc1 | 0.11 | 7.56 | 22.2 | 1530 | 168 | – |
| CC1(C)CC(=[N+]2CCCC2)C=CN1Cc1ccc(Cl)cc1.[Cl-] | 0.027 | 1.02 | 19.7 | 743 | 20.1 | MIC [10]: 32 µg/mL; zone of inhibition at 50 µg/disc [11]: 20 mm; zone of inhibition at 50 µg/disc [12]: 22 mm; zone of inhibition at 50 µg/disc [13]: 0 mm; zone of inhibition at 50 µg/disc [14]: 21 mm; Activity [6]: 45.8%; zone of inhibition at 50 µg/disc [15]: 14 mm; MSD [7]: 9 days; IC50 [16]: 121 µM; viability at 72 h, 147.7 µM [17]: 0 to 10%; zone of inhibition at 50 µg/disc [18]: 0 mm; zone of inhibition at 50 µg/disc [19]: 11 mm; zone of inhibition at 50 µg/disc [20]: 7 mm; zone of inhibition at 50 µg/disc [21]: 0 mm |
| CC1(C)CC(=[N+]2CCCC2)C=CN1Cc1ccc(Cl)c(Cl)c1.[Cl-] | 0.021 | 9.03 | 12.4 | 5350 | 112 | Activity [6]: 39.9%; MSD [7]: 4 days; inhibition at 72 h, 134 µM [22]: 27 to 56% |
| CCN(CC)CCCC(C)Nc1ccnc2cc(Cl)ccc12 (stereo unspecified) [CHLOROQUINE] | – | – | – | – | – | Activity [6]: 99.6%; MSD [7]: 20 days |
| OC(Cn1cncn1)(Cn1cncn1)c1ccc(F)cc1F [FLUCONAZOLE] | – | – | – | – | – | zone of inhibition at 50 µg/disc [11]: 24 mm; zone of inhibition at 50 µg/disc [14]: 36 mm; zone of inhibition at 50 µg/disc [18]: 28 mm |
| NNC(=O)c1ccncc1 [ISONIAZID] | – | – | – | – | – | MIC [10]: 4 µg/mL (≈ 29.2 µM) |
| NC[C@H]1O[C@H](O[C@H]2[C@H](O)[C@@H](O[C@H]3O[C@H](CO)[C@@H](O)[C@H](N)[C@H]3O)[C@H](N)C[C@@H]2N)[C@H](O)[C@@H](O)[C@@H]1O [KANAMYCIN] | – | – | – | – | – | zone of inhibition at 50 µg/disc [15]: 17 mm; zone of inhibition at 50 µg/disc [19]: 13 mm; zone of inhibition at 50 µg/disc [21]: 14 mm |
| CC1(C)S[C@@H]2[C@H](NC(=O)Cc3ccccc3)C(=O)N2[C@H]1C(=O)O [PENICILLIN G] | – | – | – | – | – | zone of inhibition at 50 µg/disc [20]: 8 mm |
| COc1cc([C@@H]2c3cc4c(cc3[C@H](O)[C@H]3COC(=O)[C@H]23)OCO4)cc(OC)c1OC [PODOFILOX] | – | – | – | – | – | IC50 [5]: 0.012 µM |
| CN(C)[C@@H]1C(O)=C(C(N)=O)C(=O)[C@@]2(O)C(O)=C3C(=O)c4c(O)cccc4[C@@](C)(O)[C@H]3C[C@@H]12 [TETRACYCLINE] | – | – | – | – | – | zone of inhibition at 50 µg/disc [12]: 13 mm |
